Measurements taken from patent publication US6114310A, “Efflux pump inhibitors” (priority 1998, dated 2000).

Test system: Pseudomonas aeruginosa PAM1001
Assay: microbe, parasite or virus in culture
Assay type: cell-based
Outline: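 Checkerboard broth microdilution (NCCLS) with the efflux pump inhibitor and levofloxacin, each diluted along one axis of the plate, in Mueller Hinton Broth. Inoculum 5×10^5 CFU/ml from early-log culture; incubation 20 h at 35° C. Growth read at 650 nm and visually.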

[1] = Table 1, EPI Conc. μg/ml (number not given; column between 10 and 40 μg/ml)
[2] = Table 2, EPI Conc. μg/ml (number not given; column between 10 and 40 μg/ml)
[3] = Table 3, EPI Conc. μg/ml (number not given; column between 10 and 40 μg/ml)
[4] = Table 4, EPI Conc. μg/ml (number not given; column between 10 and 40 μg/ml)

Substance | Levofloxacin MIC Against P. aeruginosa PAM1001 in Presence of Efflux Pump Inhibitor (EPI), Minimum Inhibitory Concentration (Table 1, EPI Conc. 0 μg/ml) [µg/mL] | Levofloxacin MIC Against P. aeruginosa PAM1001 in Presence of Efflux Pump Inhibitor (EPI), Minimum Inhibitory Concentration (Table 1, EPI Conc. 0.625 μg/ml) [µg/mL] | Levofloxacin MIC Against P. aeruginosa PAM1001 in Presence of Efflux Pump Inhibitor (EPI), Minimum Inhibitory Concentration (Table 1, EPI Conc. 5 μg/ml) [µg/mL] | Levofloxacin MIC Against P. aeruginosa PAM1001 in Presence of Efflux Pump Inhibitor (EPI), Minimum Inhibitory Concentration (Table 1, EPI Conc. 10 μg/ml) [µg/mL] | Levofloxacin MIC Against P. aeruginosa PAM1001 in Presence of Efflux Pump Inhibitor (EPI), Minimum Inhibitory Concentration (Table 1, EPI Conc. 40 μg/ml) [µg/mL] | Levofloxacin MIC Against P. aeruginosa PAM1001 in Presence of Efflux Pump Inhibitor (EPI), Minimum Inhibitory Concentration [1] [µg/mL] | Levofloxacin MIC Against P. aeruginosa PAM1001 in Presence of Efflux Pump Inhibitor (EPI), Minimum Inhibitory Concentration (Table 2, EPI Conc. 0 μg/ml) [µg/mL] | Levofloxacin MIC Against P. aeruginosa PAM1001 in Presence of Efflux Pump Inhibitor (EPI), Minimum Inhibitory Concentration (Table 2, EPI Conc. 0.625 μg/ml) [µg/mL] | Levofloxacin MIC Against P. aeruginosa PAM1001 in Presence of Efflux Pump Inhibitor (EPI), Minimum Inhibitory Concentration (Table 2, EPI Conc. 5 μg/ml) [µg/mL] | Levofloxacin MIC Against P. aeruginosa PAM1001 in Presence of Efflux Pump Inhibitor (EPI), Minimum Inhibitory Concentration (Table 2, EPI Conc. 10 μg/ml) [µg/mL] | Levofloxacin MIC Against P. aeruginosa PAM1001 in Presence of Efflux Pump Inhibitor (EPI), Minimum Inhibitory Concentration (Table 2, EPI Conc. 40 μg/ml) [µg/mL] | Levofloxacin MIC Against P. aeruginosa PAM1001 in Presence of Efflux Pump Inhibitor (EPI), Minimum Inhibitory Concentration (Table 2, EPI Conc. […]) [µg/mL] | Levofloxacin MIC Against P. aeruginosa PAM1001 in Presence of Efflux Pump Inhibitor (EPI), Minimum Inhibitory Concentration [2] [µg/mL] | Levofloxacin MIC Against P. aeruginosa PAM1001 in Presence of Efflux Pump Inhibitor (EPI), Minimum Inhibitory Concentration (Table 3, EPI Conc. 0 μg/ml) [µg/mL] | Levofloxacin MIC Against P. aeruginosa PAM1001 in Presence of Efflux Pump Inhibitor (EPI), Minimum Inhibitory Concentration (Table 3, EPI Conc. 0.625 μg/ml) [µg/mL] | Levofloxacin MIC Against P. aeruginosa PAM1001 in Presence of Efflux Pump Inhibitor (EPI), Minimum Inhibitory Concentration (Table 3, EPI Conc. 5 μg/ml) [µg/mL] | Levofloxacin MIC Against P. aeruginosa PAM1001 in Presence of Efflux Pump Inhibitor (EPI), Minimum Inhibitory Concentration (Table 3, EPI Conc. 10 μg/ml) [µg/mL] | Levofloxacin MIC Against P. aeruginosa PAM1001 in Presence of Efflux Pump Inhibitor (EPI), Minimum Inhibitory Concentration (Table 3, EPI Conc. 40 μg/ml) [µg/mL] | Levofloxacin MIC Against P. aeruginosa PAM1001 in Presence of Efflux Pump Inhibitor (EPI), Minimum Inhibitory Concentration [3] [µg/mL] | Levofloxacin MIC Against P. aeruginosa PAM1001 in Presence of Efflux Pump Inhibitor (EPI), Minimum Inhibitory Concentration (Table 4, EPI Conc. 0 μg/ml) [µg/mL] | other results
D-Ornithyl-β-(N-4-methylphenethyl)alanine quinoline-3-amide [Compound 32 (Table 3)] | 4 | 4 | 1 | 0.25 | 0.25 | 0.25 | 4 | 4 | 2 | 0.50 | 0.06 | 4 | 0.50 | 4 | 4 | 0.25 | 0.06 | 0.015 | 0.03 | 4 | Levofloxacin MIC Against P. aeruginosa PAM1001 in Presence of Efflux Pump Inhibitor (EPI), Minimum Inhibitory Concentration (Table 4, EPI Conc. 0.625 μg/ml): 4 µg/mL; Levofloxacin MIC Against P. aeruginosa PAM1001 in Presence of Efflux Pump Inhibitor (EPI), Minimum Inhibitory Concentration (Table 4, EPI Conc. 5 μg/ml): 1 µg/mL; Levofloxacin MIC Against P. aeruginosa PAM1001 in Presence of Efflux Pump Inhibitor (EPI), Minimum Inhibitory Concentration (Table 4, EPI Conc. 10 μg/ml): 0.06 µg/mL; Levofloxacin MIC Against P. aeruginosa PAM1001 in Presence of Efflux Pump Inhibitor (EPI), Minimum Inhibitory Concentration (Table 4, EPI Conc. 40 μg/ml): 0.06 µg/mL; Levofloxacin MIC Against P. aeruginosa PAM1001 in Presence of Efflux Pump Inhibitor (EPI), Minimum Inhibitory Concentration [4]: 0.06 µg/mL
D-Ornithyl-β-(N-cyclohexylmethyl)alanine 2-naphthylamide [Compound 17 (Table 3)] | 4 | 4 | 0.06 | 0.06 | 0.015 | 0.03 | 4 | 4 | 4 | 0.50 | 0.015 | 4 | 0.06 | 4 | 4 | 2 | 0.50 | 0.125 | 0.125 | 4 | Levofloxacin MIC Against P. aeruginosa PAM1001 in Presence of Efflux Pump Inhibitor (EPI), Minimum Inhibitory Concentration (Table 1, EPI Conc. […]): 4 µg/mL; Levofloxacin MIC Against P. aeruginosa PAM1001 in Presence of Efflux Pump Inhibitor (EPI), Minimum Inhibitory Concentration (Table 3, EPI Conc. […]): 4 µg/mL; Levofloxacin MIC Against P. aeruginosa PAM1001 in Presence of Efflux Pump Inhibitor (EPI), Minimum Inhibitory Concentration (Table 4, EPI Conc. 0.625 μg/ml): 4 µg/mL; Levofloxacin MIC Against P. aeruginosa PAM1001 in Presence of Efflux Pump Inhibitor (EPI), Minimum Inhibitory Concentration (Table 4, EPI Conc. 5 μg/ml): 4 µg/mL; Levofloxacin MIC Against P. aeruginosa PAM1001 in Presence of Efflux Pump Inhibitor (EPI), Minimum Inhibitory Concentration (Table 4, EPI Conc. 10 μg/ml): 2 µg/mL; Levofloxacin MIC Against P. aeruginosa PAM1001 in Presence of Efflux Pump Inhibitor (EPI), Minimum Inhibitory Concentration (Table 4, EPI Conc. 40 μg/ml): 0.125 µg/mL; Levofloxacin MIC Against P. aeruginosa PAM1001 in Presence of Efflux Pump Inhibitor (EPI), Minimum Inhibitory Concentration (Table 4, EPI Conc. […]): 4 µg/mL; Levofloxacin MIC Against P. aeruginosa PAM1001 in Presence of Efflux Pump Inhibitor (EPI), Minimum Inhibitory Concentration [4]: 1 µg/mL
D-Ornithyl-β-(N-phenylpropyl)alanine 2-naphthylamide [Compound 20 (Table 3)] | 4 | 4 | 4 | 2 | 0.25 | 1 | 4 | 4 | 2 | 1 | 0.03 | 4 | 0.50 | 4 | 4 | 2 | 0.50 | 0.015 | 0.03 | 4 | Levofloxacin MIC Against P. aeruginosa PAM1001 in Presence of Efflux Pump Inhibitor (EPI), Minimum Inhibitory Concentration (Table 1, EPI Conc. […]): 4 µg/mL; Levofloxacin MIC Against P. aeruginosa PAM1001 in Presence of Efflux Pump Inhibitor (EPI), Minimum Inhibitory Concentration (Table 3, EPI Conc. […]): 4 µg/mL; Levofloxacin MIC Against P. aeruginosa PAM1001 in Presence of Efflux Pump Inhibitor (EPI), Minimum Inhibitory Concentration (Table 4, EPI Conc. 0.625 μg/ml): 4 µg/mL; Levofloxacin MIC Against P. aeruginosa PAM1001 in Presence of Efflux Pump Inhibitor (EPI), Minimum Inhibitory Concentration (Table 4, EPI Conc. 5 μg/ml): 2 µg/mL; Levofloxacin MIC Against P. aeruginosa PAM1001 in Presence of Efflux Pump Inhibitor (EPI), Minimum Inhibitory Concentration (Table 4, EPI Conc. 10 μg/ml): 2 µg/mL; Levofloxacin MIC Against P. aeruginosa PAM1001 in Presence of Efflux Pump Inhibitor (EPI), Minimum Inhibitory Concentration (Table 4, EPI Conc. 40 μg/ml): 1 µg/mL; Levofloxacin MIC Against P. aeruginosa PAM1001 in Presence of Efflux Pump Inhibitor (EPI), Minimum Inhibitory Concentration (Table 4, EPI Conc. […]): 4 µg/mL; Levofloxacin MIC Against P. aeruginosa PAM1001 in Presence of Efflux Pump Inhibitor (EPI), Minimum Inhibitory Concentration [4]: 2 µg/mL
D-Ornithyl-β-(N-phenylpropyl)alanine quinoline-3-amide [Compound 22 (Table 3)] | 4 | 4 | 2 | 1 | 0.06 | 0.50 | 4 | 4 | 2 | 1 | 0.06 | 4 | 0.125 | 4 | 4 | 1 | 0.50 | 0.015 | 0.25 | 4 | Levofloxacin MIC Against P. aeruginosa PAM1001 in Presence of Efflux Pump Inhibitor (EPI), Minimum Inhibitory Concentration (Table 1, EPI Conc. […]): 4 µg/mL; Levofloxacin MIC Against P. aeruginosa PAM1001 in Presence of Efflux Pump Inhibitor (EPI), Minimum Inhibitory Concentration (Table 4, EPI Conc. 0.625 μg/ml): 4 µg/mL; Levofloxacin MIC Against P. aeruginosa PAM1001 in Presence of Efflux Pump Inhibitor (EPI), Minimum Inhibitory Concentration (Table 4, EPI Conc. 5 μg/ml): 1 µg/mL; Levofloxacin MIC Against P. aeruginosa PAM1001 in Presence of Efflux Pump Inhibitor (EPI), Minimum Inhibitory Concentration (Table 4, EPI Conc. 10 μg/ml): 0.125 µg/mL; Levofloxacin MIC Against P. aeruginosa PAM1001 in Presence of Efflux Pump Inhibitor (EPI), Minimum Inhibitory Concentration (Table 4, EPI Conc. 40 μg/ml): 0.125 µg/mL; Levofloxacin MIC Against P. aeruginosa PAM1001 in Presence of Efflux Pump Inhibitor (EPI), Minimum Inhibitory Concentration [4]: 0.125 µg/mL
